According to US8084459B2, “Substituted quinazolinones for treating neurological conditions” (Prana Biotechnology Ltd, priority 2004, dated 2011):

What was measured:
[1] = Assay 16 mouse plasma levels of test compounds; format: in vivo; settings: for Conc. in mouse plasma / concentration at 30 min / concentration at 60 min: single mouse; for Assay 16 Mice plasma concentration: highest level found in mice (Up to), oral dosing 30 mg/kg described for PB 1075-1077; for concentration at 30 min / concentration at 60 min: mouse, plasma, po, 30 mg/kg, read-out: Conc. in mouse plasma
How it was run: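 Compound given orally by gavage at 30 mg/kg as CMC suspension to four mice; two sacrificed at 30 min and two at 60 min, plasma from cardiac blood. Plasma levels by LC/MS (triple quadrupole, C8 column, ACN/water 0.05% formic acid gradient) after ACN protein precipitation.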

[2] = tested on: Aβ plaques; assay: Assay 14 transgenic mouse brain immunohistochemistry (plaque score); format: in vivo; settings: APP2576 mice
From the text: Assay 14. Transgenic Mouse Brain Immunohistochemistry
The APP2576 transgenic mouse (Hsiao et al., 1996) as referred to in Assay 11 is utilized in this assay. The contralateral formalin-fixed mouse brain tissue is coronally cut. Sections (10 μm) are taken from the corresponding sites and treated with 80% formic acid for antigen retrieval. The primary antibody used is monoclonal antibody 1E8, which recognizes epitopes between residues 18 and 22 of Aβ (SmithKline Beecham, UK). Immunoreactivity is developed with secondary antibody linked to horseradish peroxidase (using a 3,39-diaminobenzidinechromagen) (Dako) and alkaline phosphatase (using 5-bromo-4-chloro 3-indoxyl phosphate and nitroblue tetrazolium chloride chromagen) (Dako). Plaque abundance per section is assessed by two operators blinded to treatment according to the following scale:
1=plaques present but very sparse
2=several plaques present
3=numerous plaques visible in restricted areas
4=plaques abundant and not restricted to any particular area.
Intermediate values eg 2.5 are assigned where applicable. Students ‘t’ test is used for comparisons between groups.

[3] = 30 min after oral dosing at 30 mg/kg
[4] = 60 min after oral dosing at 30 mg/kg

Q: With O=c1c2c(Cl)cc(Cl)c(O)c2ncn1CCN1CCCC1 [Compound 1075] as the compound, how does the “Conc. in mouse plasma” value ([1]; 30 min after oral dosing at 30 mg/kg, listed as PB 1075, 30 mg/kg) read?
A: Its value is 298.46 ng/mL.

Q: And the “Conc. in mouse plasma” value ([1]; 60 min after oral dosing at 30 mg/kg, listed as PB 1075, 30 mg/kg)?
A: The value was 424.81 ng/mL.

Q: What about the “Assay 16 Mice plasma concentration” value [1] of the same compound?
A: The value was “Up to 520 ng/mL”.

Q: And the concentration at 30 min [1, 3]?
A: The concentration at 30 min was 431 ng/mL.

Q: And the concentration at 60 min [1, 4]?
A: Its concentration at 60 min is 520 ng/mL.

Q: And the “Plaques score: average count score per treatment group relative to the vehicle (sham) treated group” value [2]?
A: Its value is −22% (plaque).

Q: With O=c1c2c(Cl)cc(Cl)c(O)c2ncn1Cc1ccccn1 [Compound 1077] as the compound, how does the “Conc. in mouse plasma” value ([1]; 30 min after oral dosing at 30 mg/kg, listed as PB 1077, 30 mg/kg) read?
A: The value was 984.7 ng/mL.

Q: What about the “Conc. in mouse plasma” value ([1]; 60 min after oral dosing at 30 mg/kg, listed as PB 1077, 30 mg/kg) of the same compound?
A: The value was 752.8 ng/mL.

Q: And the “Assay 16 Mice plasma concentration” value [1]?
A: Its value is “Up to 984 ng/mL”.

Q: What about the concentration at 30 min [1, 3] of the same compound?
A: The concentration at 30 min was 731 ng/mL.

Q: And the concentration at 60 min [1, 4]?
A: Its concentration at 60 min is 495 ng/mL.

Q: What about the “Plaques score: average count score per treatment group relative to the vehicle (sham) treated group” value [2] of the same compound?
A: The value was −30% (plaque).

Q: For Cc1nc(Cn2cnc3c(O)c(Cl)cc(Cl)c3c2=O)cs1 [Compound 1084], which “Assay 16 Mice plasma concentration” value [1] is on record?
A: Its value is “Upto 2439 ng/mL”.

Q: And the “Plaques score: average count score per treatment group relative to the vehicle (sham) treated group” value [2]?
A: Its value is −21% (plaque).

Q: Which “Assay 16 Mice plasma concentration” value [1] does the source give for Cc1noc(C)c1Cn1cnc2c(O)c(Cl)cc(Cl)c2c1=O [Compound 1085] here?
A: The value was “Upto 3644 ng/mL”.

Q: Which “Assay 16 Mice plasma concentration” value [1] does the source give for Br.CCCn1cnc2c(O)c(Cl)cc(Cl)c2c1=O [Compound 1097] here?
A: The value was “Upto 261 ng/mL in”.

Q: What about the “Plaques score: average count score per treatment group relative to the vehicle (sham) treated group” value [2] of the same compound?
A: The value was −3% (plaque).
